Structures can show the parent of a compound that is named as a salt.
Each compound was assayed against T1, ERR1 (also known as ERR-α or ERR-1) (Homo sapiens, UniProt P11474) (assay: TR-FRET assay: disruption of co-activator peptide binding to ERR1 LBD). Settings: 6His-tagged ERR1 LBD 6 nM, GST-SRC-2 peptide 6 nM, 25° C., 4-18 hours; average of 3 independent experiments.
T1 construct: the ^6His-tagged-ERR1 LBD
T1 sequence (P11474 193-421 limits assumed): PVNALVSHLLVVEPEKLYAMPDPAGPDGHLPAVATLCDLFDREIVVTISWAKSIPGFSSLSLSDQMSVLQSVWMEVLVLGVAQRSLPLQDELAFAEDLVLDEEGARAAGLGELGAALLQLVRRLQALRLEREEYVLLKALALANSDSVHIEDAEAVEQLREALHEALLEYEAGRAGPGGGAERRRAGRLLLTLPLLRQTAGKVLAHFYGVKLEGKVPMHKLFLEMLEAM
Type: biochemical
In short: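 The 6His-ERR1 LBD and a GST-hSRC2 co-activator peptide were detected by α-GST Eu cryptate and α-6His-XL665 TR-FRET. Buffer was 25 mM Tris pH 8, 2.5 mM Hepes, 20 mM KCl, 1 mM DTT, 0.05 mg/mL BSA, equilibrated 4-18 h at 25° C. Dose-response curves were fitted hyperbolically and averaged over 3 independent experiments.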
Work on `COc1cc(/C=C2\SC(N(C)C)=NC2=O)ccc1Oc1ccc(C#N)cc1C(F)(F)F` [Example 81, 4-[4-(2-Dimethylamino-4-oxo-4H-thiazol-5-ylidenemethyl)-2-methoxy-phenoxy]-3-trifluoromethyl-benzonitrile] yielded an EC50 of 17 nM.
For `COC(=O)CCCNC1=NC(=O)/C(=C/c2ccc(Oc3ccc(C#N)cc3C(F)(F)F)c(OC)c2)S1` [Example 82, 4-{5-[4-(4-Cyano-2-trifluoromethyl-phenoxy)-3-methoxy-benzylidene]-4-oxo-4,5-dihydro-thiazol-2-ylamino}-butyric acid methyl ester], the EC50 was 55 nM.
Compound `COC(=O)CC1CCN(C2=NC(=O)/C(=C/c3ccc(Oc4ccc(C#N)cc4C(F)(F)F)c(OC)c3)S2)CC1` [Example 83, (1-{5-[4-(4-Cyano-2-trifluoromethyl-phenoxy)-3-methoxy-benzylidene]-4-oxo-4,5-dihydro-thiazol-2-yl}-piperidin-4-yl)-acetic acid methyl ester] has an EC50 of 26 nM.
`COC(=O)CNC1=NC(=O)/C(=C/c2ccc(Oc3ccc(C#N)cc3C(F)(F)F)c(OC)c2)S1` [Example 84, {5-[4-(4-Cyano-2-trifluoromethyl-phenoxy)-3-methoxy-benzylidene]-4-oxo-4,5-dihydro-thiazol-2-ylamino}-acetic acid methyl ester] was tested, and the EC50 was 7 nM.
In the case of `COc1cc(/C=C2\SC(NCc3cc(F)cc(F)c3)=NC2=O)ccc1Oc1ccc(C#N)cc1C(F)(F)F` [Example 85, 4-{4-[2-(3,5-Difluoro-benzylamino)-4-oxo-4H-thiazol-5-ylidenemethyl]-2-methoxy-phenoxy}-3-trifluoromethyl-benzonitrile], the EC50 is reported as 57 nM.
`COc1cc(/C=C2\SC(N3CCC(N(C)C)CC3)=NC2=O)ccc1Oc1ccc(C#N)cc1C(F)(F)F` [Example 86, 4-{4-[2-(4-Dimethylamino-piperidin-1-yl)-4-oxo-4H-thiazol-5-ylidenemethyl]-2-methoxy-phenoxy}-3-trifluoromethyl-benzonitrile] showed an EC50 of 10 nM.
With `COc1cc(/C=C2\SC(NCCN)=NC2=O)ccc1Oc1ccc(C#N)cc1C(F)(F)F` [Example 87, 4-{4-[2-(2-Amino-ethylamino)-4-oxo-4H-thiazol-5-ylidenemethyl]-2-methoxy-phenoxy}-3-trifluoromethyl-benzonitrile HCl salt] the EC50 was 22 nM.
Compound `COc1cc(/C=C2\SC(NCc3ccoc3)=NC2=O)ccc1Oc1ccc(C#N)cc1C(F)(F)F` [Example 88, 4-(4-{2-[(Furan-3-ylmethyl)-amino]-4-oxo-4H-thiazol-5-ylidenemethyl}-2-methoxy-phenoxy)-3-trifluoromethyl-benzonitrile] has an EC50 of 15 nM.
Compound `COc1cc(/C=C2\SC(NCc3ccsc3)=NC2=O)ccc1Oc1ccc(C#N)cc1C(F)(F)F` [Example 89, 4-(2-Methoxy-4-{4-oxo-2-[(thiophen-3-ylmethyl)-amino]-4H-thiazol-5-ylidenemethyl}-phenoxy)-3-trifluoromethyl-benzonitrile] has an EC50 of 25 nM.
Work on `COc1cc(/C=C2\SC(N3CC[C@@H](F)C3)=NC2=O)ccc1Oc1ccc(C#N)cc1C(F)(F)F` [Example 90, 4-{4-[2-(3-Fluoro-pyrrolidin-1-yl)-4-oxo-4H-thiazol-5-ylidenemethyl]-2-methoxy-phenoxy}-3-trifluoromethyl-benzonitrile] yielded an EC50 of 13 nM.
`COc1cc(/C=C2\SC(NCCF)=NC2=O)ccc1Oc1ccc(C#N)cc1C(F)(F)F` [Example 91, 4-{4-[2-(2-Fluoro-ethylamino)-4-oxo-4H-thiazol-5-ylidenemethyl]-2-methoxy-phenoxy}-3-trifluoromethyl-benzonitrile] showed an EC50 of 9 nM.
For `COc1cc(/C=C2\SC(NCC(F)F)=NC2=O)ccc1Oc1ccc(C#N)cc1C(F)(F)F` [Example 92, 4-{4-[2-(2,2-Difluoro-ethylamino)-4-oxo-4H-thiazol-5-ylidenemethyl]-2-methoxy-phenoxy}-3-trifluoromethyl-benzonitrile], the EC50 was 6 nM.
Compound `COc1cc(/C=C2\SC(N3CCN(C)C(=O)C3)=NC2=O)ccc1Oc1ccc(C#N)cc1C(F)(F)F` [Example 94, 4-{2-Methoxy-4-[2-(4-methyl-3-oxo-piperazin-1-yl)-4-oxo-4H-thiazol-5-ylidenemethyl]-phenoxy}-3-trifluoromethyl-benzonitrile] has an EC50 of 8 nM.
For `COc1cc(/C=C2\SC(NCC(O)CN)=NC2=O)ccc1Oc1ccc(C#N)cc1C(F)(F)F` (centres unmarked) [Example 95, 4-{4-[2-(3-Amino-2-hydroxy-propylamino)-4-oxo-4H-thiazol-5-ylidenemethyl]-2-methoxy-phenoxy}-3-trifluoromethyl-benzonitrile], the EC50 was 89 nM.
`N#Cc1ccc(Oc2ccc(/C=C3\SC(NCCF)=NC3=O)cc2F)c(C(F)(F)F)c1` [Example 96, 4-{2-Fluoro-4-[2-(2-fluoro-ethylamino)-4-oxo-4H-thiazol-5-ylidenemethyl]-2-fluoro-phenoxy}-3-trifluoromethyl-benzonitrile] showed an EC50 of 25 nM.
Compound `N#Cc1ccc(Oc2ccc(/C=C3\SC(NCC(F)F)=NC3=O)cc2F)c(C(F)(F)F)c1` [Example 97, 4-{4-[2-(2,2-Difluoro-ethylamino)-4-oxo-4H-thiazol-5-ylidenemethyl]-2-fluoro-phenoxy}-3-trifluoromethyl-benzonitrile] has an EC50 of 40 nM.
With `N#Cc1ccc(Oc2ccc(/C=C3\SC(NCCn4cncn4)=NC3=O)cc2F)c(C(F)(F)F)c1` [Example 98, 4-{2-Fluoro-4-[4-oxo-2-(2-[1,2,4]triazol-1-yl-ethylamino)-4H-thiazol-5-ylidenemethyl]-phenoxy}-3-trifluoromethyl-benzonitrile] the EC50 was 17 nM.
Work on `N#Cc1ccc(Oc2ccc(/C=C3\SC(NCCN4CCNC(=O)C4)=NC3=O)cc2F)c(C(F)(F)F)c1` [Example 99, 4-(2-Fluoro-4-{4-oxo-2-[2-(3-oxo-piperazin-1-yl)-ethylamino]-4H-thiazol-5-ylidenemethyl}-phenoxy)-3-trifluoromethyl-benzonitrile] yielded an EC50 of 18 nM.
`N#Cc1ccc(Oc2ccc(/C=C3\SC(NCCCN4CCNC(=O)C4)=NC3=O)cc2F)c(C(F)(F)F)c1` [Example 100, 4-(2-Fluoro-4-{4-oxo-2-[3-(3-oxo-piperazin-1-yl)-propylamino]-4H-thiazol-5-ylidenemethyl}-phenoxy)-3-trifluoromethyl-benzonitrile] gave an EC50 of 31 nM.
`COc1cc(/C=C2\SC(NCCCN3CCNC(=O)C3)=NC2=O)ccc1Oc1ccc(C#N)cc1C(F)(F)F` [Example 101, 4-(2-Methoxy-4-{4-oxo-2-[3-(3-oxo-piperazin-1-yl)-propylamino]-4H-thiazol-5-ylidenemethyl}-phenoxy)-3-trifluoromethyl-benzonitrile] gave an EC50 of 11 nM.
With `COc1cc(/C=C2\SC(N3CCCC(O)C3)=NC2=O)ccc1Oc1ccc(C#N)cc1C(F)(F)F` (centres unmarked) [Example 102, 4-{4-[2-(3-Hydroxy-piperidin-1-yl)-4-oxo-4H-thiazol-5-ylidenemethyl]-2-methoxy-phenoxy}-3-trifluoromethyl-benzonitrile] the EC50 was 29 nM.
Work on `N#Cc1ccc(Oc2ccc(/C=C3\SC(N4CCCC(O)C4)=NC3=O)cc2F)c(C(F)(F)F)c1` (centres unmarked) [Example 103, 4-{2-Fluoro-4-[2-(3-hydroxy-piperidin-1-yl)-4-oxo-4H-thiazol-5-ylidenemethyl]-phenoxy}-3-trifluoromethyl-benzonitrile] yielded an EC50 of 47 nM.
With `CN1CCN(CCNC2=NC(=O)/C(=C/c3ccc(Oc4ccc(C#N)cc4C(F)(F)F)c(F)c3)S2)CC1` [Example 104, 4-(2-Fluoro-4-{2-[2-(4-methyl-piperazin-1-yl)-ethylamino]-4-oxo-4H-thiazol-5-ylidenemethyl}-phenoxy)-3-trifluoromethyl-benzonitrile] the EC50 was 22 nM.
`COc1cc(/C=C2\SC(NCCN3CCNC(=O)C3)=NC2=O)ccc1Oc1ccc(C#N)cc1C(F)(F)F` [Example 105, 4-(2-Methoxy-4-{4-oxo-2-[2-(3-oxo-piperazin-1-yl)-ethylamino]-4H-thiazol-5-ylidenemethyl}-phenoxy)-3-trifluoromethyl-benzonitrile] showed an EC50 of 8 nM.
Work on `COc1cc(/C=C2\SC(N3CC(C(=O)O)C3)=NC2=O)ccc1Oc1ccc(C#N)cc1C(F)(F)F` [Example 106, 1-{5-[4-(4-Cyano-2-trifluoromethyl-phenoxy)-3-methoxy-benzylidene]-4-oxo-4,5-dihydro-thiazol-2-yl}-azetidine-3-carboxylic acid] yielded an EC50 of 3 nM.
`COc1cc(/C=C2\SC(NCc3nnn[nH]3)=NC2=O)ccc1Oc1ccc(C#N)cc1C(F)(F)F` [Example 107, 4-(2-Methoxy-4-{4-oxo-2-[(1H-tetrazol-5-ylmethyl)-amino]-4H-thiazol-5-ylidenemethyl}-phenoxy)-3-trifluoromethyl-benzonitrile] showed an EC50 of 5 nM.
For `N#Cc1ccc(Oc2ccc(/C=C3\SC(NCc4nnn[nH]4)=NC3=O)cc2F)c(C(F)(F)F)c1` [Example 108, 4-(2-Fluoro-4-{4-oxo-2-[(1H-tetrazol-5-ylmethyl)-amino]-4H-thiazol-5-ylidenemethyl}-phenoxy)-3-trifluoromethyl-benzonitrile], the EC50 was 10 nM.
Compound `COc1cc(/C=C2\SC(NCCC3CCOCC3)=NC2=O)ccc1Oc1ccc(C#N)cc1C(F)(F)F` [Example 109, 4-(2-Methoxy-4-{4-oxo-2-[2-(tetrahydro-pyran-4-yl)-ethylamino]-4H-thiazol-5-ylidenemethyl}-phenoxy)-3-trifluoromethyl-benzonitrile] has an EC50 of 5 nM.
For `N#Cc1ccc(Oc2ccc(/C=C3\SC(NCCC4CCOCC4)=NC3=O)cc2F)c(C(F)(F)F)c1` [Example 110, 4-(2-Fluoro-4-{4-oxo-2-[2-(tetrahydro-pyran-4-yl)-ethylamino]-4H-thiazol-5-ylidenemethyl}-phenoxy)-3-trifluoromethyl-benzonitrile], the EC50 was 26 nM.

Source: patent US8580832B2, “Substituted phenoxy aminothiazolones as estrogen related receptor-α modulators” (Janssen Pharmaceutica N.V., priority 2007, dated 2013)
